According to the NIST ThermoML archive (doi:10.1021/je901043q):

Assay: xn = mol fraction of the nth substance listed
Settings: 101 kPa, Liquid

CCCCn1cc[n+](C)c1.N#C[S-] [1-butyl-3-methylimidazolium thiocyanate] + CCCCCCCO
Settings	mass density [kg/m3]	viscosity [mPa·s]
298.15 K, x1 = 0.0806	845.64	7.319
298.15 K, x1 = 0.14	864.24	8.422
298.15 K, x1 = 0.2203	888.14	10.16
298.15 K, x1 = 0.3006	910.91	12.31
298.15 K, x1 = 0.3997	937.73	15.5
298.15 K, x1 = 0.4903	960.98	18.92
298.15 K, x1 = 0.5703	980.45	22.22
298.15 K, x1 = 0.6949	1008.83	28.65
298.15 K, x1 = 0.7981	1031.04	34.6
298.15 K, x1 = 0.8852	1048.62	39.81
298.15 K, x1 = 0.9793	1066.13	47.21
298.15 K, x1 = 1	1069.79	51.74
308.15 K, x1 = 0.0806	838.75	5.395
308.15 K, x1 = 0.14	857.45	6.213
308.15 K, x1 = 0.2203	881.49	7.479
308.15 K, x1 = 0.3006	904.36	9.061
308.15 K, x1 = 0.3997	931.34	11.31
308.15 K, x1 = 0.4903	954.7	13.59
308.15 K, x1 = 0.5703	974.26	15.73
308.15 K, x1 = 0.6949	1002.79	19.86
308.15 K, x1 = 0.7981	1025.06	23.67
308.15 K, x1 = 0.8852	1042.69	26.77
308.15 K, x1 = 0.9793	1060.22	31.2
308.15 K, x1 = 1	1063.89	34.87
318.15 K, x1 = 0.0806	831.82	4.085
318.15 K, x1 = 0.14	850.63	4.725
318.15 K, x1 = 0.2203	874.82	5.654
318.15 K, x1 = 0.3006	897.84	6.884
318.15 K, x1 = 0.3997	924.97	8.55
318.15 K, x1 = 0.4903	948.46	10.19
318.15 K, x1 = 0.5703	968.12	11.67
318.15 K, x1 = 0.6949	996.76	14.49
318.15 K, x1 = 0.7981	1019.11	17.02
318.15 K, x1 = 0.8852	1036.79	19.03
318.15 K, x1 = 0.9793	1054.36	21.9
318.15 K, x1 = 1	1058.02	24.19
328.15 K, x1 = 0.0806	824.81	3.166
328.15 K, x1 = 0.14	843.79	3.685
328.15 K, x1 = 0.2203	868.14	4.369
328.15 K, x1 = 0.3006	891.32	5.306
328.15 K, x1 = 0.3997	918.62	6.634
328.15 K, x1 = 0.4903	942.26	7.875
328.15 K, x1 = 0.5703	962.02	8.926
328.15 K, x1 = 0.6949	990.79	11.02
328.15 K, x1 = 0.7981	1013.22	12.79
328.15 K, x1 = 0.8852	1030.94	14.2
328.15 K, x1 = 0.9793	1048.56	16.16
328.15 K, x1 = 1	1052.19	16.7
338.15 K, x1 = 0.0806	817.69	2.508
338.15 K, x1 = 0.14	836.85	2.935
338.15 K, x1 = 0.2203	861.43	3.47
338.15 K, x1 = 0.3006	884.79	4.186
338.15 K, x1 = 0.3997	912.28	5.262
338.15 K, x1 = 0.4903	936.05	6.24
338.15 K, x1 = 0.5703	955.92	7.057
338.15 K, x1 = 0.6949	984.85	8.62
338.15 K, x1 = 0.7981	1007.36	9.943
338.15 K, x1 = 0.8852	1025.11	10.97
338.15 K, x1 = 0.9793	1042.8	12.38
338.15 K, x1 = 1	1046.43	12.73
348.15 K, x1 = 0.0806	810.46	2.022
348.15 K, x1 = 0.14	829.85	2.383
348.15 K, x1 = 0.2203	854.69	2.837
348.15 K, x1 = 0.3006	878.24	3.403
348.15 K, x1 = 0.3997	905.95	4.222
348.15 K, x1 = 0.4903	929.89	5.029
348.15 K, x1 = 0.5703	949.88	5.663
348.15 K, x1 = 0.6949	978.95	6.884
348.15 K, x1 = 0.7981	1001.53	7.93
348.15 K, x1 = 0.8852	1019.34	8.707
348.15 K, x1 = 0.9793	1037.06	9.802
348.15 K, x1 = 1	1040.7	9.98

CCCCn1cc[n+](C)c1.N#C[S-] [1-butyl-3-methylimidazolium thiocyanate] + CCCCCCCCCCO
Settings	mass density [kg/m3]	viscosity [mPa·s]
298.15 K, x1 = 0.0747	843.95	13.07
298.15 K, x1 = 0.1621	864.67	15.5
298.15 K, x1 = 0.2537	886.57	18.67
298.15 K, x1 = 0.3512	910.03	22.48
298.15 K, x1 = 0.4924	944.3	28.36
298.15 K, x1 = 0.5922	968.81	32.87
298.15 K, x1 = 0.6659	987.05	36.09
298.15 K, x1 = 0.7576	1009.83	40
298.15 K, x1 = 0.8692	1037.62	45.01
298.15 K, x1 = 0.9587	1059.8	49.31
298.15 K, x1 = 1	1069.79	51.74
308.15 K, x1 = 0.0747	837.19	9.168
308.15 K, x1 = 0.1621	857.99	10.96
308.15 K, x1 = 0.2537	879.95	13.08
308.15 K, x1 = 0.3512	903.51	15.62
308.15 K, x1 = 0.4924	938.02	19.52
308.15 K, x1 = 0.5922	962.63	22.29
308.15 K, x1 = 0.6659	981.01	24.5
308.15 K, x1 = 0.7576	1003.83	27.12
308.15 K, x1 = 0.8692	1031.69	30.46
308.15 K, x1 = 0.9587	1053.86	33.3
308.15 K, x1 = 1	1063.89	34.87
318.15 K, x1 = 0.0747	830.4	6.582
318.15 K, x1 = 0.1621	851.35	7.964
318.15 K, x1 = 0.2537	873.42	9.541
318.15 K, x1 = 0.3512	897.08	11.39
318.15 K, x1 = 0.4924	931.78	14.06
318.15 K, x1 = 0.5922	956.5	16.04
318.15 K, x1 = 0.6659	974.94	17.59
318.15 K, x1 = 0.7576	997.87	19.4
318.15 K, x1 = 0.8692	1025.8	21.56
318.15 K, x1 = 0.9587	1048.02	23.3
318.15 K, x1 = 1	1058.02	24.19
328.15 K, x1 = 0.0747	823.59	4.88
328.15 K, x1 = 0.1621	844.7	5.959
328.15 K, x1 = 0.2537	866.89	7.162
328.15 K, x1 = 0.3512	890.79	8.553
328.15 K, x1 = 0.4924	925.54	10.62
328.15 K, x1 = 0.5922	950.4	11.98
328.15 K, x1 = 0.6659	968.92	12.98
328.15 K, x1 = 0.7576	991.96	14.04
328.15 K, x1 = 0.8692	1019.98	15.15
328.15 K, x1 = 0.9587	1042.2	16.1
328.15 K, x1 = 1	1052.19	16.7
338.15 K, x1 = 0.0747	816.7	3.741
338.15 K, x1 = 0.1621	838	4.567
338.15 K, x1 = 0.2537	860.36	5.526
338.15 K, x1 = 0.3512	884.37	6.586
338.15 K, x1 = 0.4924	919.35	8.183
338.15 K, x1 = 0.5922	944.32	9.243
338.15 K, x1 = 0.6659	962.91	9.998
338.15 K, x1 = 0.7576	986.05	10.76
338.15 K, x1 = 0.8692	1014.18	11.46
338.15 K, x1 = 0.9587	1036.43	12.18
338.15 K, x1 = 1	1046.43	12.73
348.15 K, x1 = 0.0747	809.76	2.909
348.15 K, x1 = 0.1621	831.23	3.578
348.15 K, x1 = 0.2537	853.79	4.411
348.15 K, x1 = 0.3512	877.97	5.195
348.15 K, x1 = 0.4924	913.13	6.455
348.15 K, x1 = 0.5922	938.26	7.278
348.15 K, x1 = 0.6659	956.95	7.875
348.15 K, x1 = 0.7576	980.21	8.487
348.15 K, x1 = 0.8692	1008.43	9.047
348.15 K, x1 = 0.9587	1030.7	9.624
348.15 K, x1 = 1	1040.7	9.98
